# Experiments:
# [1] = molecular target: T1, EGFR (d746-750) (Homo sapiens, UniProt P00533, DEL746-750); experiment: Biochemical EGFR inhibition assay (Caliper mobility shift), EGFR (d746-750); details: biochemical Caliper mobility shift assay, EGFR Exon 19-del enzyme; read-out: Enz EGFR Exon 19-del IC50
# T1 construct: purchased SignalChem E10-122JG
# How it was run: (§1)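 Peptide phosphorylation by the mutant enzyme is followed at 25 °C with either 1.0 mM ATP or ATP at Km, in HEPES pH 7.5 containing 0.015% Brij-35 and 1.0% DMSO. After 10–20% substrate turnover, 35 mM EDTA ends the reaction and mobility shift quantifies product.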
# [2] = molecular target: intracellular phosphorylation of EGFR (Tyr1068) in PC-9 cells (Homo sapiens, UniProt P00533, DEL746-750); experiment: PC-9 pEGFR AlphaLISA assay; assay type: cell-based; details: 4 hours incubation, read-out: Phos EGFR PC9 IC50
# Sequence of intracellular phosphorylation of EGFR (Tyr1068) in PC-9 cells (P00533 with tags, fused parts or gaps DEL746-750): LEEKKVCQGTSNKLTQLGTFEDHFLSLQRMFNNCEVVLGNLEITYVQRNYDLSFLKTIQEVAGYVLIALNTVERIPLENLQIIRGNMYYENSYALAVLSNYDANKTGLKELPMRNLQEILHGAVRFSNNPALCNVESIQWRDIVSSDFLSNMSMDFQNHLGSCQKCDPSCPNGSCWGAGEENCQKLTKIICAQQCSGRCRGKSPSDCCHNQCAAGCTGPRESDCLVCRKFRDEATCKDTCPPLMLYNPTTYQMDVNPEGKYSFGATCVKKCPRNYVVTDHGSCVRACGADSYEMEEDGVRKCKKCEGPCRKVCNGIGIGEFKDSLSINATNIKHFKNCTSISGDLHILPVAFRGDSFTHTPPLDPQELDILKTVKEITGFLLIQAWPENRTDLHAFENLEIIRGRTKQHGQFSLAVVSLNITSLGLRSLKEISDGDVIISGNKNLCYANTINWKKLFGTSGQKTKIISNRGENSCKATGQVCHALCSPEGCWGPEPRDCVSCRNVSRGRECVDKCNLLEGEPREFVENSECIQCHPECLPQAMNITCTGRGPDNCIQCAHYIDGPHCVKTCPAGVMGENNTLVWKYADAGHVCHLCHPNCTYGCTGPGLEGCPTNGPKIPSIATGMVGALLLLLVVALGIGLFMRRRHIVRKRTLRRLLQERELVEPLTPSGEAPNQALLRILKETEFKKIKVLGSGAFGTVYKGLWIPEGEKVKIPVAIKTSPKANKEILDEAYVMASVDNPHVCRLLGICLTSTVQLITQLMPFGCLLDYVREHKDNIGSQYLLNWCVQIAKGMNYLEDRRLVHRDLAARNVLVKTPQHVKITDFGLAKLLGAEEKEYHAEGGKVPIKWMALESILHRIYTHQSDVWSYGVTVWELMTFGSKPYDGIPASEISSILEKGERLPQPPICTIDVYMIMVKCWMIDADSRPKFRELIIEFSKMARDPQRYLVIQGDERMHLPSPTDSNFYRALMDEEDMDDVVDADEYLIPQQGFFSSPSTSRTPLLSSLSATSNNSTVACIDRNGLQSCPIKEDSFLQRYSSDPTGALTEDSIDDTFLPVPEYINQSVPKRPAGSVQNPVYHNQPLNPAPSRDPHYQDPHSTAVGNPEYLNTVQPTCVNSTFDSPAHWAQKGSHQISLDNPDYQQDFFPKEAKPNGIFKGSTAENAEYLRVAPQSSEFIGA
# How it was run: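 PC-9 cells (EGFR del746-750) in phenol-free DMEM/10% FBS, adhered overnight, then exposed to 10-point 4-fold compound dilutions for 4 h at 37 °C. Lysates assayed for pEGFR Tyr1068 by AlphaLISA SureFire Ultra; IC50 from percent pEGFR inhibition vs log concentration.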
# [3] = molecular target: T2, EGFR L858R (Homo sapiens, UniProt P00533, L858R); experiment: Biochemical EGFR inhibition assay (Caliper mobility shift), EGFR L858R; details: biochemical Caliper mobility shift assay, EGFR L858R enzyme; read-out: Enz EGFR L858R IC50
# T2 construct: purchased SignalChem E10-122BG
# T2 sequence (P00533 25-1210 L858R): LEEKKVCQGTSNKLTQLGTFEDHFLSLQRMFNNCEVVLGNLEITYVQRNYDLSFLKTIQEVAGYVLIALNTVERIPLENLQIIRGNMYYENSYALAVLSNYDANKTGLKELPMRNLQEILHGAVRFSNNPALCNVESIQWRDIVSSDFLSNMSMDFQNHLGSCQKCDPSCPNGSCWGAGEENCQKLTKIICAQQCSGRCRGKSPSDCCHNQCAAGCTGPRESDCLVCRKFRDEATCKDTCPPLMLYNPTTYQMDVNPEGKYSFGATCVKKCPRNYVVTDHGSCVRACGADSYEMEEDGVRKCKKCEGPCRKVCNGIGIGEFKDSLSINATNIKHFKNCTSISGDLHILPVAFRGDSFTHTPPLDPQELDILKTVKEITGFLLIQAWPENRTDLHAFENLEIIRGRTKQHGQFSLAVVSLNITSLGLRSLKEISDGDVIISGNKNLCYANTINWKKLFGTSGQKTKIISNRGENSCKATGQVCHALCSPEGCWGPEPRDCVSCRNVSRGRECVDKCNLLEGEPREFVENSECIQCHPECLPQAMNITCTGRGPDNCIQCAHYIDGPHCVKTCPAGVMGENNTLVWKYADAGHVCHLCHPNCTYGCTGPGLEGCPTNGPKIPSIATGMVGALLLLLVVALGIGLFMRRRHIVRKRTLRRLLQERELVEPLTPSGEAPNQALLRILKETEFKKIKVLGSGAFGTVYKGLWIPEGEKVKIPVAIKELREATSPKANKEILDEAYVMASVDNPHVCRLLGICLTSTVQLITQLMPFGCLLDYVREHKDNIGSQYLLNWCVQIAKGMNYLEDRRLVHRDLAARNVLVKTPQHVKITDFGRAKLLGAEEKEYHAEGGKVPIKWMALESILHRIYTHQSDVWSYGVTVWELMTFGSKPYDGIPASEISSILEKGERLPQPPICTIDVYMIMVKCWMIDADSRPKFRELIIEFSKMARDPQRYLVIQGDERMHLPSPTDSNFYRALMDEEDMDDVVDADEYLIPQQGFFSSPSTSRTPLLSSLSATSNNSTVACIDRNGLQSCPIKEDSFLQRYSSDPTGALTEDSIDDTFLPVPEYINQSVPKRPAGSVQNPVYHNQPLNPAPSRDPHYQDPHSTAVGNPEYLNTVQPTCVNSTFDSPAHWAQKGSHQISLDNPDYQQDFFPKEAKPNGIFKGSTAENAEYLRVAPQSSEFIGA
# How it was run: as §1
# T1 sequence (P00533 with tags, fused parts or gaps DEL746-750 limits assumed): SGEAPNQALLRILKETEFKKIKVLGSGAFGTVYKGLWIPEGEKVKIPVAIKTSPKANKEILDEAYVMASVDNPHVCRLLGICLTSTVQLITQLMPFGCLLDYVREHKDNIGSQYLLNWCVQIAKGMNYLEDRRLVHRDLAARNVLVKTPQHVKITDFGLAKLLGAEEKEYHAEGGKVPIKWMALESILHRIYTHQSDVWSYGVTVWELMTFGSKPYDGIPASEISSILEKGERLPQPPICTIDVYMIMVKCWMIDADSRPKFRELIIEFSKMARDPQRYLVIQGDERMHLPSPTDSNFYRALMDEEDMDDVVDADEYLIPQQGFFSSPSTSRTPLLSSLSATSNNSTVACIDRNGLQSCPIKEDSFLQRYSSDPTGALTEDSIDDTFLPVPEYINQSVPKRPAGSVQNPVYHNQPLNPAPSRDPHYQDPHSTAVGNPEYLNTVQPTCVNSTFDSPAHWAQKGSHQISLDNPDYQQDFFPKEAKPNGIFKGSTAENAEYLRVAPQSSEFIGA
Compound,IC50 [1],IC50 [2],IC50 [3]
"C[C@H](Oc1cc(-c2cnn(C)c2)cc2ncnc(Nc3ccc4ncsc4c3)c12)C(=O)N1CCOCC1 [Example 284, (S)-2-((4-(benzo[d]thiazol-6-ylamino)-7-(1-methyl-1H-pyrazol-4-yl)quinazolin-5-yl)oxy)-1-morpholinopropan-1-one]",≤ 10 nM,≤ 10 nM,≤ 10 nM
"C[C@@H](Oc1cc(-c2cnn(C)c2)cc2ncnc(Nc3ccc4ncsc4c3)c12)C(=O)N1CCOCC1 [Example 285, (R)-2-((4-(benzo[d]thiazol-6-ylamino)-7-(1-methyl-1H-pyrazol-4-yl)quinazolin-5-yl)oxy)-1-morpholinopropan-1-one]",≤ 10 nM,≤ 10 nM,≤ 10 nM
"Cn1cc(-c2cc(OC(C)(C)C(=O)N3CCOCC3)c3c(Nc4ccc5ncsc5c4)ncnc3c2)cn1 [Example 286, 2-((4-(benzo[d]thiazol-6-ylamino)-7-(1-methyl-1H-pyrazol-4-yl)quinazolin-5-yl)oxy)-2-methyl-1-morpholinopropan-1-one]",≤ 10 nM,10.1 to 50 nM,10.1 to 50 nM
"CC(Oc1cc(N2CCN(C)C3CC32)cc2ncnc(Nc3ccc4ncsc4c3)c12)C1COC1 [Example 300, N-(7-((1R,6S)-5-methyl-2,5-diazabicyclo[4.1.0]heptan-2-yl)-5-((R)-1-(oxetan-3-yl)ethoxy)quinazolin-4-yl)benzo[d]thiazol-6-amine, OR N-(7-((1S,6R)-5-methyl-2,5-diazabicyclo[4.1.0]heptan-2-yl)-5-((R)-1-(oxetan-3-yl)ethoxy)quinazolin-4-yl)benzo[d]thiazol-6-amine]",≤ 10 nM,≤ 10 nM,10.1 to 50 nM
"COCCN1CCC(Oc2cc(-c3cn(C)nc3OC)cc3ncnc(Nc4ccc5ncsc5c4)c23)CC1 [Example 305, N-(7-(3-methoxy-1-methyl-1H-pyrazol-4-yl)-5-((1-(2-methoxyethyl)piperidin-4-yl)oxy)quinazolin-4-yl)benzo[d]thiazol-6-amine]",≤ 10 nM,≤ 10 nM,≤ 10 nM
"COc1nn(C)cc1-c1cc(OC2CCN(C3COC3)CC2)c2c(Nc3ccc4ncsc4c3)ncnc2c1 [Example 306, N-(7-(3-methoxy-1-methyl-1H-pyrazol-4-yl)-5-((1-(oxetan-3-yl)piperidin-4-yl)oxy)quinazolin-4-yl)benzo[d]thiazol-6-amine]",≤ 10 nM,≤ 10 nM,≤ 10 nM
"CCn1cc(-c2cc(OC3CCN(C4COC4)CC3)c3c(Nc4ccc5ncsc5c4)ncnc3c2)cn1 [Example 307, N-(7-(1-ethyl-1H-pyrazol-4-yl)-5-((1-(oxetan-3-yl)piperidin-4-yl)oxy)quinazolin-4-yl)benzo[d]thiazol-6-amine]",≤ 10 nM,≤ 10 nM,≤ 10 nM

# Further lines, results first:
IC50 [1],IC50 [2],IC50 [3],Compound
≤ 10 nM,10.1 to 50 nM,10.1 to 50 nM,"COCCN1CCC(Oc2cc(-c3nn(C)cc3OC)cc3ncnc(Nc4ccc5ncsc5c4)c23)CC1 [Example 308, N-(7-(4-methoxy-1-methyl-1H-pyrazol-3-yl)-5-((1-(2-methoxyethyl)piperidin-4-yl)oxy)quinazolin-4-yl)benzo[d]thiazol-6-amine]"
≤ 10 nM,≤ 10 nM,≤ 10 nM,"CCN1CCC(Oc2cc(-c3cnn(C)c3)cc3ncnc(Nc4ccc5ncsc5c4)c23)CC1 [Example 309, N-(5-((1-ethylpiperidin-4-yl)oxy)-7-(1-methyl-1H-pyrazol-4-yl)quinazolin-4-yl)benzo[d]thiazol-6-amine]"
≤ 10 nM,≤ 10 nM,≤ 10 nM,"Cn1cc(-c2cc(OC3CCN(CC(F)F)CC3)c3c(Nc4ccc5ncsc5c4F)ncnc3c2)cn1 [Example 310, N-(5-((1-(2,2-difluoroethyl)piperidin-4-yl)oxy)-7-(1-methyl-1H-pyrazol-4-yl)quinazolin-4-yl)-7-fluorobenzo[d]thiazol-6-amine]"

# Source: US20260207602A1, “EGFR INHIBITORS” (Blueprint Medicines Corporation, priority 2022, published 2026)
